Results on 26 compounds are retold here after patent US6982348B2, “Aminoethanol derivatives” (Takeda Pharmaceutical Company Limited, priority 2001, dated 2006).

The term melting point denotes the temperature of the solid-liquid transition. In the case of `N#CC(c1ccc([C@H](O)[C@@H](Cc2cccc(OC(F)(F)C(F)F)c2)NC(=O)c2cccc3c2C=CCCC3)cc1)N1CCCCC1` (mixture of isomers) [Example 327, N-[(1RS,2SR)-2-[4-[cyano(piperidino)methyl]phenyl]-2-hydroxy-1-[3-(1,1,2,2-tetrafluoroethoxy)benzyl]ethyl]-6,7-dihydro-5H-benzo[a]cycloheptene-1-carboxamide], the melting point is 152 to 154 °C.

`O=C(N[C@H](Cc1cccc(OC(F)(F)C(F)F)c1)[C@@H](O)c1ccc(CO)cc1)c1cccc2c1C=CCCC2` (racemic) [Example 327, N-[(1RS,2SR)-2-hydroxy-2-[4-(hydroxymethyl)phenyl]-1-[3-(1,1,2,2-tetrafluoroethoxy)benzyl]ethyl]-6,7-dihydro-5H-benzo[a]cycloheptene-1-carboxamide]: the melting point lay within 151 to 152 °C.

On to `O=C(N[C@H](Cc1cccc(OC(F)(F)C(F)F)c1)[C@@H](O)c1ccc(CN2CCCCC2)cc1)c1cccc2c1C=CCCC2` (racemic) [Example 327, N-[(1RS,2SR)-2-hydroxy-2-[4-(piperidinomethyl)phenyl]-1-[3-(1,1,2,2-tetrafluoroethoxy)benzyl]ethyl]-6,7-dihydro-5H-benzo[a]cycloheptene-1-carboxamide], for which the melting point lay in the range of 104 to 106 °C.

The compound `CC(C)(C)OC(=O)N[C@H](Cc1cccc(OC(F)(F)C(F)F)c1)[C@@H](O)c1ccc(Cl)nc1` (racemic) [Example 328, tert-butyl N-[(1RS,2SR)-2-(6-chloropyridin-3-yl)-2-hydroxy-1-[3-(1,1,2,2-tetrafluoroethoxy)benzyl]ethyl]carbamate] returned a melting point of 119 to 121 °C.

For `O=C(N[C@H](Cc1cccc(OC(F)(F)C(F)F)c1)[C@@H](O)c1ccc(Cl)nc1)c1cccc2c1C=CCCC2` (racemic) [Example 329, N-[(1RS,2SR)-2-(6-chloropyridin-3-yl)-2-hydroxy-1-[3-(1,1,2,2-tetrafluoroethoxy)benzyl]ethyl]-6,7-dihydro-5H-benzo[a]cycloheptene-1-carboxamide], the melting point is 170 to 172 °C.

Compound `O=C(N[C@H](Cc1cccc(OC(F)(F)C(F)F)c1)[C@@H](O)c1ccc(-c2ccccc2)nc1)c1cccc2c1C=CCCC2` (racemic) [Example 330, N-[(1RS,2SR)-2-hydroxy-2-(6-phenylpyridin-3-yl)-1-[3-(1,1,2,2-tetrafluoroethoxy)benzyl]ethyl]-6,7-dihydro-5H-benzo[a]cycloheptene-1-carboxamide] came in with a melting point of 174 to 175 °C.

In turn, `O=C(N[C@H](Cc1cccc(OC(F)(F)C(F)F)c1)[C@@H](O)c1ccc(Cl)nc1)c1ccc(F)c2ccccc12` (racemic) [Example 331, N-[(1RS,2SR)-2-(6-chloropyridin-3-yl)-2-hydroxy-1-[3-(1,1,2,2-tetrafluoroethoxy)benzyl]ethyl]-4-fluoronaphthalene-1-carboxamide] came in with a melting point of 185 to 187 °C.

As for `O=C(N[C@H](Cc1cccc(OC(F)(F)C(F)F)c1)[C@@H](O)c1ccc(F)cc1)c1cccc2c(Cl)cccc12` (racemic) [Example 333, 5-chloro-N-[(1RS,2SR)-2-(4-fluorophenyl)-2-hydroxy-1-[3-(1,1,2,2-tetrafluoroethoxy)benzyl]ethyl]naphthalene-1-carboxamide], the melting point lay in the range of 174 to 175 °C.

`O=C(N[C@H](Cc1cccc(OC(F)(F)C(F)F)c1)[C@@H](O)c1ccc(F)cc1)c1cccc2c(F)cccc12` (racemic) [Example 334, 5-fluoro-N-[(1RS,2SR)-2-(4-fluorophenyl)-2-hydroxy-1-[3-(1,1,2,2-tetrafluoroethoxy)benzyl]ethyl]naphthalene-1-carboxamide] had a melting point of 178 to 180 °C.

Take `O=C(N[C@H](Cc1cccc(C=C(F)C(F)F)c1)[C@@H](O)c1ccc(F)cc1)c1cccc2c1C=CCCC2` (racemic) [Example 335, N-[(1RS,2SR)-2-(4-fluorophenyl)-2-hydroxy-1-[3-(2,3,3-trifluoro-1-propenyl)benzyl]ethyl]-6,7-dihydro-5H-benzo[a]cycloheptene-1-carboxamide]: the melting point lay in the range of 165 to 167 °C.

Turning to `O=C(N[C@H](Cc1cccc(C=C(F)C(F)F)c1)[C@@H](O)c1ccc(F)cc1)c1ccc(F)c2ccccc12` (racemic) [Example 336, 4-fluoro-N-[(1RS,2SR)-2-(4-fluorophenyl)-2-hydroxy-1-[3-(2,3,3-trifluoro-1-propenyl)benzyl]ethyl]naphthalene-1-carboxamide], the melting point was in the range of 184 to 185 °C.

For `CC(C)(C)OC(=O)N[C@H](Cc1cccc(CC(F)(F)C(F)F)c1)[C@@H](O)c1ccc(F)cc1` (racemic) [Example 337, tert-butyl N-[(1RS,2SR)-2-(4-fluorophenyl)-2-hydroxy-1-[3-(2,2,3,3-tetrafluoropropyl)benzyl]ethyl]carbamate], the melting point lay in the range of 168 to 169 °C.

As for `O=C(N[C@H](Cc1cccc(CC(F)(F)C(F)F)c1)[C@@H](O)c1ccc(F)cc1)c1cccc2c1C=CCCC2` (racemic) [Example 338, N-[(1RS,2SR)-2-(4-fluorophenyl)-2-hydroxy-1-[3-(2,2,3,3-tetrafluoropropyl)benzyl]ethyl]-6,7-dihydro-5H-benzo[a]cycloheptene-1-carboxamide], the melting point is 165 to 166 °C.

In turn, `O=C(N[C@H](Cc1cccc(CC(F)(F)C(F)F)c1)[C@@H](O)c1ccc(F)cc1)c1ccc(F)c2ccccc12` (racemic) [Example 339, 4-fluoro-N-[(1RS,2SR)-2-(4-fluorophenyl)-2-hydroxy-1-[3-(2,2,3,3-tetrafluoropropyl)benzyl]ethyl]naphthalene-1-carboxamide] registered a melting point of 172 to 173 °C.

`O=C(N[C@H](Cc1cccc(CC(F)(F)C(F)F)c1)[C@@H](O)c1ccc(F)cc1)c1cccc2c(Cl)cccc12` (racemic) [Example 340, 5-chloro-N-[(1RS,2SR)-2-(4-fluorophenyl)-2-hydroxy-1-[3-(2,2,3,3-tetrafluoropropyl)benzyl]ethyl]naphthalene-1-carboxamide] gave a melting point of 174 to 175 °C.

Take `CC(C)(C)OC(=O)N[C@H](Cc1cccc(C(F)C(C)(C)F)c1)[C@@H](O)c1ccc(F)cc1` (mixture of isomers) [Example 341, tert-butyl N-[(1RS,2SR)-1-[3-(1,2-difluoro-2-methylpropyl)benzyl]-2-(4-fluorophenyl)-2-hydroxyethyl]carbamate]: the melting point fell in the range of 148 to 149 °C.

With `CC(C)(F)C(F)c1cccc(C[C@@H](NC(=O)c2cccc3c2C=CCCC3)[C@@H](O)c2ccc(F)cc2)c1` (mixture of isomers) [Example 342, N-[(1RS,2SR)-1-[3-(1,2-difluoro-2-methylpropyl)benzyl]-2-(4-fluorophenyl)-2-hydroxyethyl]-6,7-dihydro-5H-benzo[a]cycloheptene-1-carboxamide], the melting point was in the range of 102 to 104 °C.

Regarding `CC(C)(C)Cc1ccc(C[C@@H](NC(=O)c2cccc3c2C=CCCC3)[C@@H](O)c2cccc(Cl)c2)cc1` (racemic) [Example 344, N-[(1RS,2SR)-2-(3-chlorophenyl)-2-hydroxy-1-(4-neopentylbenzyl)ethyl]-6,7-dihydro-5H-benzo[a]cycloheptene-1-carboxamide], the melting point was in the range of 147 to 149 °C.

Compound `CC(C)(C)Cc1ccc(C[C@@H](NC(=O)c2ccc(F)c3ccccc23)[C@@H](O)c2cccc(Cl)c2)cc1` (racemic) [Example 345, 4-fluoro-N-[(1RS,2SR)-2-(3-chlorophenyl)-2-hydroxy-1-(4-neopentylbenzyl)ethyl]naphthalene-1-carboxamide] came in with a melting point of 150 to 151 °C.

Take `CC(C)(C)Cc1ccc(C[C@@H](NC(=O)c2cccc3c(Cl)cccc23)[C@@H](O)c2cccc(Cl)c2)cc1` (racemic) [Example 346, 5-chloro-N-[(1RS,2SR)-2-(3-chlorophenyl)-2-hydroxy-1-(4-neopentylbenzyl)ethyl]naphthalene-1-carboxamide]: the melting point lay within 168 to 169 °C.

Regarding `O=C(N[C@H](Cc1cccc(C(=O)C(F)(F)C(F)F)c1)[C@@H](O)c1ccc(F)cc1)c1ccc(F)c2ccccc12` (racemic) [Example 348, 4-fluoro-N-[(1RS,2SR)-2-(4-fluorophenyl)-2-hydroxy-1-[3-(2,2,3,3-tetrafluoropropionyl)benzyl]ethyl]naphthalene-1-carboxamide], the melting point was in the range of 160 to 162 °C.

`C=C(c1cccc(C[C@@H](NC(=O)c2ccc(F)c3ccccc23)[C@@H](O)c2ccc(F)cc2)c1)C(F)(F)C(F)F` (racemic) [Example 349, 4-fluoro-N-[(1RS,2SR)-2-(4-fluorophenyl)-2-hydroxy-1-[3-[1-(1,1,2,2-tetrafluoroethyl)vinyl]benzyl]ethyl]naphthalene-1-carboxamide] gave a melting point of 162 to 163 °C.

In the case of `O=C(N[C@H](Cc1cccc(C(=O)C(F)(F)C(F)F)c1)[C@@H](O)c1ccc(F)cc1)c1cccc2c(Cl)cccc12` (racemic) [Example 350, 5-chloro-N-[(1RS,2SR)-2-(4-fluorophenyl)-2-hydroxy-1-[3-(2,2,3,3-tetrafluoropropionyl)benzyl]ethyl]naphthalene-1-carboxamide], the melting point is 154 to 155 °C.

`CC(C)C(F)(F)Cc1ccc(C[C@@H](NC(=O)OC(C)(C)C)[C@@H](O)c2cccc(Cl)c2)cc1` (racemic) [Example 352, tert-butyl N-[(1RS,2SR)-2-(3-chlorophenyl)-1-[4-(2,2-difluoro-3-methylbutyl)benzyl]-2-hydroxyethyl]carbamate] registered a melting point of 139 to 141 °C.

Take `CC(C)C(F)(F)Cc1ccc(C[C@@H](NC(=O)c2ccc(F)c3ccccc23)[C@@H](O)c2cccc(Cl)c2)cc1` (racemic) [Example 353, N-[(1RS,2SR)-2-(3-chlorophenyl)-1-[4-(2,2-difluoro-3-methylbutyl)benzyl]-2-hydroxyethyl]-4-fluoronaphthalene-1-carboxamide]: the melting point lay within 181 to 182 °C.

In the case of `CC(C)C(F)(F)Cc1ccc(C[C@@H](NC(=O)c2cccc3c(Cl)cccc23)[C@@H](O)c2cccc(Cl)c2)cc1` (racemic) [Example 354, 5-chloro-N-[(1RS,2SR)-2-(3-chlorophenyl)-1-[4-(2,2-difluoro-3-methylbutyl)benzyl]-2-hydroxyethyl]naphthalene-1-carboxamide], the melting point lay within 170 to 171 °C.
